Test results as given in PubChem BioAssay AID602239 (National Center for Advancing Translational Sciences (NCATS), 2012).

test system: mouse liver microsomes with NADPH, LC-MS/MS; test: qHTS for Activators of Human alpha-Glucosidase as a Potential Chaperone Treatment of Pompe Disease: Metabolic Stability in presence of NADPH; conditions: at 5 µM; hits give high values (more stable);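 active = compound with at least 90% left intact after incubation with mouse liver microsomes and NADPH; inactive = the rest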
Source text: Alpha-glucosidase is responsible for hydrolysis of terminal, non-reducing 1,4-linked alpha-D-glucose residues with release of alpha-D-glucose. It is a lysosomal hydrolase that is required for the degradation of a small percentage (1-3%) of cellular glycogen in human. Deficiency of this enzyme results in glycogen-storage disease type II (GSDII), also referred to as Pompe disease, an autosomal recessive disorder. Structurally normal glycogen is accumulated in lysosomes and cytoplasm in affected patients, primarily in muscle tissues. Excessive glycogen storage within lysosomes may interrupt normal functioning of other organelles and leads to cellular injury. In turn, this leads to enlargement and dysfunction of the entire organ involved (eg, cardiomyopathy and muscle weakness). It has reported that the improper folding and trafficking of alpha-glucosidase resulting from the genetic mutations may account for a significant number of Pompe patients. […] We optimized this alpha-glucosidase assay in 1536-well plate format for identifying the novel small molecule inhibitors with the structures other than the sugar analogs in order to develop the new pharmacological chaperones. Mouse liver microsomes are created through broken up endoplasmic reticulum from mouse liver. These liver microsomes contain many drug metabolizing enzymes, such as Cytochome P-450s and flavin-containing monooxygenases. […] NIH Chemical Genomics Center [NCGC] NIH Molecular Libraries Probe Production Centers Network [MLPCN] MLPCN Grant: MH084841 Assay Submitter (PI): Wei Zheng
5uM of compound is incubated with mouse liver microsome; the reference compounds are verapamil and warfarin. Compounds are incubated and samples are analyzed with LC-MS/MS.

Percent remaining (higher = more stable), inactive:
CCCN1CNc2c(c(=O)[nH]c(=S)n2CCc2cccc(Cl)c2Cl)C1 2%
CCCN1CNc2c(c(=O)[nH]c(=S)n2Cc2ccc(OC)c(OC)c2)C1 63%
CCCN1CNc2c(c(=O)[nH]c(=S)n2CCc2ccc(OC)c(OC)c2)C1 4%
